According to US20160082109A1, “COPOLYMER AND NANOPARTICLES OBTAINED THEREFROM FOR DRUG DELIVERY” (FONDAZIONE ISTITUTO ITALIANO DI TECNOLOGIA, priority 2013, published 2016):

Experiments:
bEND.3 cells = test: Confocal microscopy of nanoparticle internalization and RhB delivery; format: cell-based, mice; details: 6 h; nanoparticles 10 μg/ml, free RhB 113 ng/ml
Method: Immortalized endothelial cells of mice, bEND.3 (American Type Culture Collection, Manassas, Va., USA) were cultivated in a DMEM medium with high levels of glucose in the presence of 10% of FBS, L-glutamine 2 mM, 1000 U/ml penicillin and 1 mg/ml of streptomycin. The cells split from 2 to 20 times were kept in a humidified incubator for cell cultures at 37° C. and 5%, CO2. This cell line was chosen because it is a suitable model for providing an endothelial barrier. […] The free rhodamine (113 ng/ml, the same quantity of rhodamine administered with the nanoparticles), was used as negative control for the absorption test for nanoparticles loaded with rhodamine B. […] Lysotracker-red-[…] 50 nM was added to mark the lysosomes and verify the intracellular localization of the nanoparticles. To understand the release potential by the nanoparticles, the internalization of nanoparticles loaded with RhB by bEND.3 cells was compared with the detection of fluorescent RhB not loaded on nanoparticles (FIGS. 15a and 15b respectively).

[1] = format: physicochemical
Method: The tests were conducted on 2±0.3 mg of polymer, placed in polypropyplene vials filled with 1 ml of deionized H2O and kept in a thermostatic bath at 37° C. for 33 days. At regular intervals the samples were withdrawn, the degradation medium was separated for evaluation of the pH while the degraded polymers were dried in a ventilated stove at 50° C. for 3 h and then analysed by gel permeation chromatography (GPC).
The pH measurements were conducted on the degradation means (deionized H2O) after pre-set times. In particular, the degradation means were withdrawn from the vials containing the polymer, prepared as reported in example 1, during the degradation tests in the previous example and the measurement was performed using a pH-meter on the samples just taken at a temperature of 37° C.

| pH of the degradation means (lower values / end of the test) [1] | Molecule | RhB internalization in cells (bEND.3 cells) |
| --- | --- | --- |
| – | CCN(CC)c1ccc2c(-c3ccccc3C(=O)O)c3ccc(=[N+](CC)CC)cc-3oc2c1.[Cl-] [Free RhB, rhodamine B] | not observed |
| comparable | polycaprolactone [PCL] | – |
